Reference: patent US20070134315A1, “Orally administrable extended release pellet and tablet formulations of a highly water soluble compound” (priority 2005, published 2007)
≈ marks a conversion by molar mass, not a printed value.

Legend:
[1] = Isothermal thermogravimetric analysis (TGA) of sublimation; format: physicochemical
Experimental: The temperature dependent physical instability of the drug substance was studied in detail in order to determine the appropriate pharmaceutical formulation processes and temperature ranges suitable for the preparation of the pharmaceutical compositions of isovaleramide. An automated thermogravimetric analysis (TGA) method was used to determine the relative rates of isovaleramide sublimation. Isothermal TGA was conducted at 30° C., 35° C., 40° C., 45° C., 50° C. and 60° C. for 24 hours. Samples were prepared by first taring a platinum TGA pan on the TGA system. A sample amount of isovaleramide of 10 mg-15 mg was then added to the pan and distributed evenly. The sample pan was then loaded onto the TGA autosampler for subsequent analysis. Samples were initially equilibrated at their respective isothermal temperature and then monitored for 24 hours. Data sampling was accomplished at a rate of 600 seconds/point. Sample replicates ranged from 1 to 3. TGA instrument and operating conditions were as follows: […]

[2] = Water solubility of isovaleramide and dose number; format: physicochemical
Experimental: The water solubility of the drug substance as used herein, is defined according to its dose number, Do, for oral drug delivery. The dose number for a drug is defined by the ratio of its dose concentration to its saturation solubility in a reference fluid according to the following calculation: [formula]
where: Mo is the dose of the drug (mg), Vo is the reference fluid volume (mL) and Cs is the saturation solubility of the drug in the reference fluid (mg/mL) at 37° C. Representative reference fluids for oral drug delivery are aqueous based solutions within the relevant physiologic pH range of the gastrointestinal tract (i.e., pH 1-pH 7.5). A representative reference fluid volume for oral drug delivery is 250 mL. A drug substance is considered to be highly soluble if at its highest dose the Do value is ≦1. […] The solubility of isovaleramide in water at 37° C. is approximately 70 mg/mL. The upper range of a single daily dose of isovaleramide could be 1200 mg to 2400 mg. The Do number range for isovaleramide, calculated using a reference volume of 250 mL and the single daily dose range of 1200 mg to 2400 mg, is 0.07 to 0.14.

Reduction in Weight % ([1]; isothermal 30° C., 1 hr): 0.05%
Reduction in Weight % ([1]; isothermal 30° C., 3 hr): 0.12%
Reduction in Weight % ([1]; isothermal 30° C., 6 hr): 0.25%
Reduction in Weight % ([1]; isothermal 30° C., 9 hr): 0.41%
Reduction in Weight % ([1]; isothermal 30° C., 12 hr): 0.62%
Reduction in Weight % ([1]; isothermal 30° C., 15 hr): 0.82%
Reduction in Weight % ([1]; isothermal 30° C., 18 hr): 1.01%
Reduction in Weight % ([1]; isothermal 30° C., 21 hr): 1.20%
Reduction in Weight % ([1]; isothermal 30° C., 24 hr): 1.32%
Reduction in Weight % ([1]; isothermal 35° C., 1 hr, mean of three): 0.10%
Reduction in Weight % ([1]; isothermal 35° C., 3 hr, mean of three): 0.28%
Reduction in Weight % ([1]; isothermal 35° C., 6 hr, mean of three): 0.55%
Reduction in Weight % ([1]; isothermal 35° C., 9 hr, mean of three): 0.83%
Reduction in Weight % ([1]; isothermal 35° C., 12 hr, mean of three): 1.12%
Reduction in Weight % ([1]; isothermal 35° C., 15 hr, mean of three): 1.41%
Reduction in Weight % ([1]; isothermal 35° C., 18 hr, mean of three): 1.67%
Reduction in Weight % ([1]; isothermal 35° C., 21 hr, mean of three): 1.92%
Reduction in Weight % ([1]; isothermal 35° C., 24 hr, mean of three): 2.17%
Reduction in Weight % ([1]; isothermal 40° C., 1 hr, mean of three): 0.14%
Reduction in Weight % ([1]; isothermal 40° C., 3 hr, mean of three): 0.53%
Reduction in Weight % ([1]; isothermal 40° C., 6 hr, mean of three): 1.10%
Reduction in Weight % ([1]; isothermal 40° C., 9 hr, mean of three): 1.65%
Reduction in Weight % ([1]; isothermal 40° C., 12 hr, mean of three): 2.27%
Reduction in Weight % ([1]; isothermal 40° C., 15 hr, mean of three): 2.83%
Reduction in Weight % ([1]; isothermal 40° C., 18 hr, mean of three): 3.43%
Reduction in Weight % ([1]; isothermal 40° C., 21 hr, mean of three): 4.02%
Reduction in Weight % ([1]; isothermal 40° C., 24 hr, mean of three): 4.58%
Reduction in Weight % ([1]; isothermal 45° C., 1 hr): 0.27%
Reduction in Weight % ([1]; isothermal 45° C., 3 hr): 0.91%
Reduction in Weight % ([1]; isothermal 45° C., 6 hr): 1.97%
Reduction in Weight % ([1]; isothermal 45° C., 9 hr): 2.95%
Reduction in Weight % ([1]; isothermal 45° C., 12 hr): 3.95%
Reduction in Weight % ([1]; isothermal 45° C., 15 hr): 4.98%
Reduction in Weight % ([1]; isothermal 45° C., 18 hr): 6.02%
Reduction in Weight % ([1]; isothermal 45° C., 21 hr): 7.05%
Reduction in Weight % ([1]; isothermal 45° C., 24 hr): 8.01%
Reduction in Weight % ([1]; isothermal 50° C., 1 hr): 0.54%
Reduction in Weight % ([1]; isothermal 50° C., 3 hr): 1.65%
Reduction in Weight % ([1]; isothermal 50° C., 6 hr): 3.35%
Reduction in Weight % ([1]; isothermal 50° C., 9 hr): 5.05%
Reduction in Weight % ([1]; isothermal 50° C., 12 hr): 6.68%
Reduction in Weight % ([1]; isothermal 50° C., 15 hr): 8.35%
Reduction in Weight % ([1]; isothermal 50° C., 18 hr): 10.04%
Reduction in Weight % ([1]; isothermal 50° C., 21 hr): 11.77%
Reduction in Weight % ([1]; isothermal 50° C., 24 hr): 13.43%
Reduction in Weight % ([1]; isothermal 60° C., 1 hr, mean of three): 1.98%
Reduction in Weight % ([1]; isothermal 60° C., 3 hr, mean of three): 5.96%
Reduction in Weight % ([1]; isothermal 60° C., 6 hr, mean of three): 11.90%
Reduction in Weight % ([1]; isothermal 60° C., 9 hr, mean of three): 17.79%
Reduction in Weight % ([1]; isothermal 60° C., 12 hr, mean of three): 23.61%
Reduction in Weight % ([1]; isothermal 60° C., 15 hr, mean of three): 29.37%
Reduction in Weight % ([1]; isothermal 60° C., 18 hr, mean of three): 35.03%
Reduction in Weight % ([1]; isothermal 60° C., 21 hr, mean of three): 40.53%
Reduction in Weight % ([1]; isothermal 60° C., 24 hr, mean of three): 44.74%
pH dependence of solubility ([2]; physiologic pH range of the gastrointestinal tract): pH independent solubility
solubility ([2]; water, 37° C.): ~70 mg/mL (≈ 692 mM)
SMILES: CC(C)CC(N)=O [Isovaleramide, isovaleramide]
